In patent US9340577B2, “HLA binding motifs and peptides and their uses” (priority 1992, dated 2016):
No end group written: not given here.

Tests used:
Test in all cases: biochemical
DRB1*1302 = DRB1*1302 (Homo sapiens, UniProt P01903+P01911, A100E/A169T/K41T/L162R/M171V/P40S/Q125H/Q178H/Q39Y/Q99D/R42S/S66N/T262R/V115G/W38E/Y61H); format: binding
DRB1*0405 = DRB1*0405 (Homo sapiens, UniProt P01903+P01911, A100R/A169T/D86S/F76Y/I96L/K127E/L162R/M171V/N62H/P40V/Q125Y/R42H/S133A/S149N/S66Y/V115G/V209L/W38E); format: binding
DR1 (DRB1*0101) = DR1 (DRB1*0101) (Homo sapiens, UniProt P01903+P01911, A100R/D57E/F55L/F60I/F76Y/I96L/L162R/M171V/P40L/Q125E/R42F/V115G/Y59C); format: binding
DRB5*0101 = DRB5*0101 (Homo sapiens, UniProt P01903+Q30154)
DR7 (DRB1*0701) = DR7 (DRB1*0701) (Homo sapiens, UniProt P01903+P01911, A100R/A102G/A103Q/D57E/D86V/E43K/F76Y/K127E/L162R/M171V/P40G/Q125H/Q99D/R33Q/R42Y/R54Q/S133A/S66F/T210M/V115G/Y107V/Y59L/Y89S); format: binding
DRB1*0301 = DRB1*0301 (Homo sapiens, UniProt P01903+P01911, A100K/A102G/A103R/A169T/F55Y/I96L/K41T/L162R/M171V/P40S/Q125H/Q178H/Q39Y/R42S/S66N/T106N/T262R/W38E/Y61H); format: binding
DRB1*0802 = DRB1*0802 (Homo sapiens, UniProt P01903+P01911, A100R/A103L/A169T/F76Y/H45Y/I96F/K41T/L162R/M171V/P40S/Q125H/Q178H/Q39Y/Q99D/R218S/R42G/S66Y/V115G/W38E); format: binding
DRB1*0901 = DRB1*0901 (Homo sapiens, UniProt P01903+P01911, A100R/A103E/D57H/D86V/F55Y/F60I/F76Y/I96F/K127E/L162R/M171V/P40D/Q125H/Q99R/R33Q/R42F/S133A/S66N/T210M/V115G/W38K/Y107V/Y59G/Y89S); format: binding
DR4w4 (DRB1*0401) = DR4w4 (DRB1*0401) (Homo sapiens, UniProt P01903+P01911, A100K/A169T/F76Y/I96L/K127E/L162R/M171V/N62H/P40V/Q125Y/R42H/S133A/S149N/S66Y/V115G/V209L/W38E); format: binding
DRB1*1101 = DRB1*1101 (Homo sapiens, UniProt P01903+P01911, A100R/A169T/A87E/I96F/K41T/L162R/M171V/P40S/Q125H/Q178H/Q39Y/Q99D/R42S/S66Y/T262R/V115G/W38E)
DRB4*0101 = DRB4*0101 (Homo sapiens, UniProt P01903+P13762, G164S); format: binding
DRB1*1201 = DRB1*1201 (Homo sapiens, UniProt P01903+P01911, A100R/A169T/D57E/D86V/F55L/H45Y/K41T/L162R/M171V/P40S/Q125H/Q178H/Q39Y/Q99D/R42G/S66L/T262R/V114A/V67L/W38E/Y59H/Y61H/Y89S); format: binding
DRB1*1501 = DRB1*1501 (Homo sapiens, UniProt P01903+P01911); format: binding
DRB3*0101 = DRB3*0101 (Homo sapiens, UniProt P01903+P79483); format: binding

Chain of DRB1*0301 (P01903 26-254 limits assumed, other chains not shown): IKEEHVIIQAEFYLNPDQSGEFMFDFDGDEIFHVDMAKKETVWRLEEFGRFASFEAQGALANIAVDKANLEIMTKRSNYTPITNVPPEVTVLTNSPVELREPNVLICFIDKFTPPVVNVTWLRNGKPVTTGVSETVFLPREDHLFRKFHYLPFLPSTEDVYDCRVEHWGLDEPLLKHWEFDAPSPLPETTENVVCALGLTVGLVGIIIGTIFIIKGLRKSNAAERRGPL
Chain of DRB1*1302 (P01903 26-254 limits assumed, other chains not shown): as above
Chain of DRB1*1101 (P01903 26-254 limits assumed, other chains not shown): as above

Sequence: FKKFLKGIPKKSCML [Peptide 89.0073]
- IC50 (DRB1*1302): 2660 nM
- IC50 (DRB1*0405): 17500 nM
- IC50 (DR1 (DRB1*0101)): 20 nM
- IC50 (DRB5*0101; Binding affinity DRB5 *0101): 66 nM
- IC50 (DR7 (DRB1*0701)): 2090 nM
- IC50 (DRB1*0301): > 20000 nM
- IC50 (DRB1*0802): 320 nM
- IC50 (DRB1*0901): 2480 nM
- IC50 (DR4w4 (DRB1*0401)): 452 nM
- IC50 (DRB1*1101; Binding affinity DRB1 *1101): 64 nM
- IC50 (DRB4*0101): 2220 nM
- IC50 (DRB1*1201): 709 nM
- IC50 (DRB1*1501): 508 nM

Sequence: FQVIELQMALETLNA [Peptide 90.0025]
- IC50 (DRB1*1302): 187 nM
- IC50 (DRB1*0405): 2490 nM
- IC50 (DR1 (DRB1*0101)): 20 nM
- IC50 (DRB5*0101; Binding affinity DRB5 *0101): > 20000 nM
- IC50 (DR7 (DRB1*0701)): 2650 nM
- IC50 (DRB1*0301): 743 nM
- IC50 (DRB1*0802): > 20000 nM
- IC50 (DRB1*0901): 1970 nM
- IC50 (DR4w4 (DRB1*0401)): 75 nM
- IC50 (DRB1*1101; Binding affinity DRB1 *1101): 3990 nM
- IC50 (DRB4*0101): 15 nM
- IC50 (DRB1*1201): 708 nM
- IC50 (DRB1*1501): 449 nM

Sequence: GEIYIIEEDTCTMVT [Peptide 90.0202]
- IC50 (DRB1*1302): 426 nM
- IC50 (DRB1*0405): 8110 nM
- IC50 (DR1 (DRB1*0101)): 1600 nM
- IC50 (DRB5*0101; Binding affinity DRB5 *0101): > 20000 nM
- IC50 (DR7 (DRB1*0701)): 6600 nM
- IC50 (DRB1*0301): 55 nM
- IC50 (DRB1*0802): > 20000 nM
- IC50 (DRB1*0901): > 20000 nM
- IC50 (DR4w4 (DRB1*0401)): 148 nM
- IC50 (DRB1*1101; Binding affinity DRB1 *1101): > 20000 nM
- IC50 (DRB4*0101): 322 nM
- IC50 (DRB1*1201): > 20000 nM
- IC50 (DRB1*1501): > 20000 nM

Sequence: ISEVMGDTPEWIQRL [Peptide 90.0052]
- IC50 (DRB1*1302): 9 nM
- IC50 (DRB1*0405): 4110 nM
- IC50 (DR1 (DRB1*0101)): 2880 nM
- IC50 (DRB5*0101; Binding affinity DRB5 *0101): > 20000 nM
- IC50 (DR7 (DRB1*0701)): 4020 nM
- IC50 (DRB1*0301): 55 nM
- IC50 (DRB1*0802): > 20000 nM
- IC50 (DRB1*0901): > 20000 nM
- IC50 (DR4w4 (DRB1*0401)): > 20000 nM
- IC50 (DRB1*1101; Binding affinity DRB1 *1101): > 20000 nM
- IC50 (DRB4*0101): 2040 nM
- IC50 (DRB1*1201): > 20000 nM
- IC50 (DRB1*1501): 6830 nM

Sequence: NGWFYVEAVIDRQTG [Peptide 90.0062]
- IC50 (DRB1*1302): 4870 nM
- IC50 (DRB1*0405): 12 nM
- IC50 (DR1 (DRB1*0101)): 157 nM
- IC50 (DRB5*0101; Binding affinity DRB5 *0101): 558 nM
- IC50 (DR7 (DRB1*0701)): 157 nM
- IC50 (DRB1*0301): 241 nM
- IC50 (DRB1*0802): 3990 nM
- IC50 (DRB1*0901): 453 nM
- IC50 (DR4w4 (DRB1*0401)): 69 nM
- IC50 (DRB1*1101; Binding affinity DRB1 *1101): 3350 nM
- IC50 (DRB4*0101): 14 nM
- IC50 (DRB1*1201): 4040 nM
- IC50 (DRB1*1501): > 20000 nM

Sequence: QWAYDNDIVDDSEIA [Peptide 90.0036]
- IC50 (DRB1*1302): > 20000 nM
- IC50 (DRB1*0405): 4260 nM
- IC50 (DR1 (DRB1*0101)): > 20000 nM
- IC50 (DRB5*0101; Binding affinity DRB5 *0101): > 20000 nM
- IC50 (DR7 (DRB1*0701)): > 20000 nM
- IC50 (DRB1*0301): 990 nM
- IC50 (DRB1*0802): > 20000 nM
- IC50 (DRB1*0901): > 20000 nM
- IC50 (DR4w4 (DRB1*0401)): 11800 nM
- IC50 (DRB1*1101; Binding affinity DRB1 *1101): > 20000 nM
- IC50 (DRB4*0101): > 20000 nM
- IC50 (DRB1*1201): > 20000 nM
- IC50 (DRB1*1501): > 20000 nM

Sequence: RLTVAKLMSNLLSIP [Peptide 89.0065]
- IC50 (DRB1*1302): 7.2 nM
- IC50 (DRB1*0405): 43 nM
- IC50 (DR1 (DRB1*0101)): 4.3 nM
- IC50 (DRB5*0101; Binding affinity DRB5 *0101): 498 nM
- IC50 (DR7 (DRB1*0701)): 45 nM
- IC50 (DRB1*0301): 4150 nM
- IC50 (DRB1*0802): 483 nM
- IC50 (DRB1*0901): 994 nM
- IC50 (DR4w4 (DRB1*0401)): 6.2 nM
- IC50 (DRB1*1101; Binding affinity DRB1 *1101): 62 nM
- IC50 (DRB4*0101): 4 nM
- IC50 (DRB1*1201): 107 nM
- IC50 (DRB1*1501): 9.5 nM

Sequence: TPEWIQRLTIIQHGI [Peptide 89.0030]
- IC50 (DRB1*1302): 413 nM
- IC50 (DRB1*0405): 204 nM
- IC50 (DR1 (DRB1*0101)): 669 nM
- IC50 (DRB5*0101; Binding affinity DRB5 *0101): 5890 nM
- IC50 (DR7 (DRB1*0701)): 155 nM
- IC50 (DRB1*0301): > 20000 nM
- IC50 (DRB1*0802): 374 nM
- IC50 (DRB1*0901): 2430 nM
- IC50 (DR4w4 (DRB1*0401)): 190 nM
- IC50 (DRB1*1101; Binding affinity DRB1 *1101): 389 nM
- IC50 (DRB4*0101): 6.8 nM
- IC50 (DRB1*1201): 418 nM
- IC50 (DRB1*1501): 17600 nM

Sequence: YIVMSDWTGGA [Peptide 510.33]
- IC50 (DRB5*0101; DRB5*0101): > 10000 nM
- IC50 (DRB3*0101): > 33300 nM
- IC50 (DRB1*1101; DRB1*1101): > 6670 nM
